PubChem BioAssay (NCI)
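96-well plates; 48 h exposure; 5 concentrations. Endpoints by linear interpolation between flanking doses. Not reached: highest tested concentration assigned. GI50 = concentration required for 50% inhibition of growth. TGI: total growth inhibition.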

Experiments:
Assay in all cases: NCI tumour cell line growth inhibition, 48 h
786-0 renal = test system: 786-0 renal
SR leukemia = test system: SR leukemia
P388 leukemia = test system: P388 leukemia
XF 498 CNS = test system: XF 498 CNS
SN12K1 renal = test system: SN12K1 renal
P388/ADR leukemia = test system: P388/ADR leukemia
LXFL 529 NSCLC = test system: LXFL 529 NSCLC

SMILES: COc1ccc(C2=[S+]C(c3ccccc3)(c3ccccc3)c3ccccc32)cc1
- TGI (786-0 renal): 34.9 µM

SMILES: O=c1nc2ccc([N+](=O)[O-])cc2[n+]([O-])[nH]1
- TGI (786-0 renal): > 100 µM
- TGI (SR leukemia): > 100 µM

SMILES: C/C(=N\NC(=O)c1ccc(Cl)cc1)c1nc2ncccc2[nH]1
- TGI (786-0 renal): 55.3 µM
- TGI (SR leukemia): > 100 µM

SMILES: COc1cc(-c2ccc(N=Nc3ccc4c(S(=O)(=O)O)cc(S(=O)(=O)O)c(N)c4c3O)c(OC)c2)ccc1N=Nc1ccc2c(S(=O)(=O)O)cc(S(=O)(=O)O)c(N)c2c1O
- TGI (P388 leukemia): > 100 µM
- TGI (XF 498 CNS): > 100 µM
- TGI (SN12K1 renal): > 100 µM
- TGI (P388/ADR leukemia): > 100 µM

SMILES: N#[N+]c1c([O-])c2ccccc2c2ccccc12
- TGI (786-0 renal): > 100 µM
- TGI (SR leukemia): > 100 µM

SMILES: CCOC(=O)NC(Nc1cc(Cl)ccc1OC)(C(F)(F)F)C(F)(F)F
- TGI (SR leukemia): > 100 µM

SMILES: c1ccc2c(c1)NCc1cc3ccccc3nc1O2
- TGI (P388 leukemia): > 100 µM
- TGI (XF 498 CNS): > 100 µM
- TGI (SN12K1 renal): > 100 µM
- TGI (P388/ADR leukemia): > 100 µM

SMILES: CCOC(=O)/C=C/c1c(C)[nH]c(=O)[nH]c1=O
- TGI (P388 leukemia): > 141 µM
- TGI (XF 498 CNS): > 250 µM
- TGI (SN12K1 renal): > 250 µM
- TGI (P388/ADR leukemia): > 158 µM

SMILES: O=C1CCC[C@H]2O[C@@H](COC(=O)c3ccccc3)C[C@H]2O1
- TGI (SR leukemia): > 100 µM

SMILES: c1cc2c3c(c1)c1cc4c(cc1c[n+]3CC2)OCO4
- TGI (P388 leukemia): 4.22 µM
- TGI (XF 498 CNS): 10.9 µM
- TGI (SN12K1 renal): 12.2 µM
- TGI (P388/ADR leukemia): > 225 µM

SMILES: Cc1ccc(Cl)cc1N=NC(=O)NNc1cc(Cl)ccc1C
- TGI (SR leukemia): > 100 µM

SMILES: O=C1C(CO)=C[C@H](O)[C@H]2O[C@@H]12
- TGI (P388 leukemia): 195 µM
- TGI (XF 498 CNS): 359 µM
- TGI (SN12K1 renal): 278 µM
- TGI (P388/ADR leukemia): 225 µM

SMILES: c1ccc2c(c1)c1ccccc1n2Cn1c2ccccc2c2ccccc21
- TGI (SR leukemia): > 100 µM

SMILES: Cc1cn(-c2cccc(NC(=O)c3ccc(C)c(Nc4nccc(-c5cccnc5)n4)c3)c2)cn1
- GI50 (SR leukemia): 2.08 µM
- TGI (SR leukemia): 5.02 µM

SMILES: COc1cccc2c1C(=O)c1c(O)c3c(c(O)c1C2=O)C[C@@](O)(C(=O)COC(=O)c1ccccc1)C[C@@H]3OC1CC(N)C(O)C(C)O1 (stereo not given in full)
- TGI (SR leukemia): 0.225 µM

SMILES: O=C(NN1C(=O)C(Cl)C1c1cccc([N+](=O)[O-])c1)c1ccccc1O (stereo not given)
- TGI (XF 498 CNS): > 100 µM
- TGI (LXFL 529 NSCLC): > 100 µM
- TGI (SR leukemia): > 100 µM

SMILES: C/C(=N\NC(=S)N1CCC(N2CCCCC2)CC1)c1ccccn1
- TGI (XF 498 CNS): 19.6 µM
- TGI (LXFL 529 NSCLC): 13.6 µM
- TGI (SR leukemia): 9.74 µM
